Assay results as given in ChEMBL document CHEMBL4364295, “Discovery of a First-in-Class Receptor Interacting Protein 2 (RIP2) Kinase Specific Clinical Candidate, 2-((4-(Benzo[d]thiazol-5-ylamino)-6-(tert-butylsulfonyl)quinazolin-7-yl)oxy)ethyl Dihydrogen Phosphate, for the Treatment of Inflammatory Diseases” (J Med Chem, 2019).

Columns and labels:
[1] = Volume of distribution at steady state in Sprague-Dawley rat at 2 mg/kg, po or 0.5 mg/kg, iv by LC/MS/MS analysis; format: ADME, organism-based; conditions: in vivo, read-out: Vdss
[2] = AUC in Sprague-Dawley rat at 200 mg/kg, po using crystalline sample during 7 day dose ranging study by LC/MS/MS analysis; format: ADME, organism-based; conditions: in vivo
[3] = biological target: Receptor-interacting serine/threonine-protein kinase 2 (Homo sapiens, UniProt O43353); experiment: Inhibition of fluorescent-labelled ligand binding to human RIP2K preincubated for 10 mins followed by fluorescent-labelled ligand addition and measured after 10 mins by fluorescence polarization assay
[4] = biological target: T1, Toll-like receptor 7 (Homo sapiens, UniProt Q9NYK1); experiment: Inhibition of TLR7 in human monocytes assessed as reduction in gardiquimod-induced IL8 production; format: cell-based
T1 sequence (Q9NYK1 whole entry): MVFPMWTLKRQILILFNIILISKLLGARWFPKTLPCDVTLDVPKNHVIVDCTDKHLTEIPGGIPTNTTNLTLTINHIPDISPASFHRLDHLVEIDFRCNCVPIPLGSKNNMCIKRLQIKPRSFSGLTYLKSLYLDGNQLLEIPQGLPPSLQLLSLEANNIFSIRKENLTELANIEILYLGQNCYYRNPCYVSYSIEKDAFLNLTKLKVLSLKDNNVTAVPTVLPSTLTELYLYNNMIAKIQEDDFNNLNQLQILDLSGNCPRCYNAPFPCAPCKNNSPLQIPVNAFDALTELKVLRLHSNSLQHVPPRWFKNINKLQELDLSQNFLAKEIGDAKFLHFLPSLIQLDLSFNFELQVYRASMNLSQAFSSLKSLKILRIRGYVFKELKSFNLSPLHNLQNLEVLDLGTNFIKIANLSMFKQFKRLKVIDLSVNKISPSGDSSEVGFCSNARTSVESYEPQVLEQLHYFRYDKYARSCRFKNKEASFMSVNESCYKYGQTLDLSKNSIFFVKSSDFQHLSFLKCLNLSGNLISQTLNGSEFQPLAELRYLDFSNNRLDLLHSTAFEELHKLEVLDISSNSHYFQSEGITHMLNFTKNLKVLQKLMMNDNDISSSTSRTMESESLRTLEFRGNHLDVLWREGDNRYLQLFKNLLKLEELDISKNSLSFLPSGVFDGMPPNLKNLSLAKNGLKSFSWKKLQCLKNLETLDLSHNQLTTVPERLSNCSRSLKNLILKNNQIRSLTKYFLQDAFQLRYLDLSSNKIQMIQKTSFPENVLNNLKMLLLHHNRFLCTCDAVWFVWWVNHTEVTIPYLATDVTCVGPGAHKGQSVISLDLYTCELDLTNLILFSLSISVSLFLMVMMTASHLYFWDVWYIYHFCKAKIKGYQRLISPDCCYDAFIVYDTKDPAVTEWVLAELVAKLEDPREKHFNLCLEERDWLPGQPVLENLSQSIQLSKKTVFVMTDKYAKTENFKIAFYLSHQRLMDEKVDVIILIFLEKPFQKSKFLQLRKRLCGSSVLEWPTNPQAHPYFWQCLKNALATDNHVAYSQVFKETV

[5] = Unbound fraction in minipig blood; format: ADME, tissue-based, Sus scrofa; conditions: pig
[6] = Terminal half life in Gottingen minipig assessed as 2-((4-(Benzo[d]thiazol-5-ylamino)-6-(tert-butylsulfonyl)quinazolin-7-yl)oxy)ethanol level at 2 mg/kg, po or 1 mg/kg, iv by LC/MS/MS analysis; format: ADME, organism-based, Sus scrofa; conditions: pig, in vivo
[7] = Prodrug conversion in rat hepatocytes assessed as hydrogenation at 20 uM measured after 4 hrs; format: ADME, cell-based, Hepatocyte
[8] = Prodrug conversion in minipig hepatocytes assessed as benzothiazole ring opening at 20 uM measured after 4 hrs; format: ADME, cell-based, Sus scrofa, Hepatocyte; conditions: pig

Sequence of Receptor-interacting serine/threonine-protein kinase 2 (O43353 whole entry): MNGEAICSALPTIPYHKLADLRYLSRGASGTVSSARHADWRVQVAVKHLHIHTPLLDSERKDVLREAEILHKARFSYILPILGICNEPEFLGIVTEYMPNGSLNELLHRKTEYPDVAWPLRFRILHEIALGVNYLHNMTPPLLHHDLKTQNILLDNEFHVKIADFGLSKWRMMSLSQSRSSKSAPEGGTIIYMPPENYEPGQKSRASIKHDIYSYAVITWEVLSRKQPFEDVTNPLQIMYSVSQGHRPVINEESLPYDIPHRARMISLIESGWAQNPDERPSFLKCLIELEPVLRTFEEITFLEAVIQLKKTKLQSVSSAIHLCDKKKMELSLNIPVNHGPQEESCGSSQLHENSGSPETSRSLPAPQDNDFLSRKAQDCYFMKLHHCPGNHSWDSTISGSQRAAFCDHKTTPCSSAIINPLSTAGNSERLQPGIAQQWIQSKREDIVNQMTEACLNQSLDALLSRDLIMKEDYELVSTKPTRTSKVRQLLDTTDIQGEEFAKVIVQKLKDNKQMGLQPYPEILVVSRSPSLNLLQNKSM

Structure (SMILES)	Vd [1]	AUC at 168 h [2]	IC50 [3]	IC50 [4]	fraction unbound [5]	beta t1/2 [6]	Drug metabolism [7]	Drug metabolism [8]
CC(C)(C)S(=O)(=O)c1cc2c(Nc3ccc4scnc4c3)ncnc2cc1OCCO	4.1 L/kg	41.4 µg·h/mL	5 nM	> 10000 nM	0.068	–	–	–
CC(C)(C)S(=O)(=O)c1cc2c(Nc3ccc4scnc4c3)ncnc2cc1OCCOP(=O)(O)O.[CaH2]	–	–	–	–	–	4.2 h	Metabolite_Detected	Metabolite_Detected
